Entries after “also recorded” stand apart in the source; their conditions may differ. Read-outs that look alike come from different tables or passages of the source.
What was measured:
[1] = system: α5-containing GABAA receptor; assay type: in vivo, rat; conditions: 0.01-10 mg/kg, i.v.
[2] = target: T1, α5-containing GABAA receptor (Rattus norvegicus, UniProt P18508+P19969); assay type: in vivo; conditions: i.v.; for effect on Ro 15-4513 binding in hippocampus: 0.01-10 mg/kg
T1 construct: occupancy in the hippocampus (a region of high GABAAα5 receptor density); from tissue; host or cells: rat brain in vivo; hippocampus versus cerebellum

[3] = system: aged-impaired (AI) rats; assay: Radial Arm Maze (RAM) behavioral task, four-hour delay (Example 108); assay type: in vivo, rat
Description: The same experiment was repeated using the same vehicle control and doses of ethyl 3-methoxy-7-methyl-9H-benzo[f]imidazo[1,5-a][1,2,4]triazolo[4,3-d][1,4]diazepine-10-carboxylate, where the vehicle control was tested 5 times, the 3 mg/kg dose of ethyl 3-methoxy-7-methyl-9H-benzo[f]imidazo[1,5-a][1,2,4]triazolo[4,3-d][1,4]diazepine-10-carboxylate was tested 4 times, and the other doses of ethyl 3-methoxy-7-methyl-9H-benzo[f]imidazo[1,5-a][1,2,4]triazolo[4,3-d][1,4]diazepine-10-carboxylate were tested twice.
Parametric statistics (paired t-tests) was used to compare the retention test performance of the AI rats in the four-hour delay version of the RAM task in the context of different doses of ethyl 3-methoxy-7-methyl-9H-benzo[f]imidazo[1,5-a][1,2,4]triazolo[4,3-d][1,4]diazepine-10-carboxylate and vehicle control (see FIG. 5).

[4] = assay type: in vivo, Long Evans rats; conditions: i.v.
Description: (§1) Food and water were available ad libitum.
For plasma exposures, blood samples were centrifuged at 14000 rpm for 16 minutes. After centrifuging, 50 ul of supernatant (plasma) from each sample was added to 200 μl of acetonitrile plus 0.1% formic acid. […] Samples were sonicated for 5 minutes in an ultrasonic water bath, followed by centrifugation for 30 minutes, at 16000 RPM. 100 ul of supernatant was removed from each sample vial and placed in a new glass auto sample vial, followed by the addition of 300 μl of sterile water (pH 6.5).

[5] = target: α5-containing GABAA R (Homo sapiens, UniProt P18507+P31644); conditions: cited from earlier work
[6] = target: T2, GABAAα5 receptor (Rattus norvegicus, UniProt P18508+P19969); assay: GABAA α5 receptor occupancy with Ro 15-4513 tracer (Example 107B); assay type: in vivo, Long Evans rats
T2 construct: occupancy in the hippocampus (a region of high GABAAα5 receptor density); from tissue; host or cells: rat brain in vivo; hippocampus versus cerebellum
Excerpt: as §1

[7] = system: aged-impaired (AI) rats; assay: Radial Arm Maze (RAM) behavioral task, two-hour delay (Example 107A); assay type: in vivo, rat; conditions: 3 mg/kg ip
Description: The effects of methyl 3,5-diphenylpyridazine-4-carboxylate on the in vivo spatial memory retention of aged-impaired (AI) rats were assessed in a Radial Arm Maze (RAM) behavioral task using vehicle control and four different dosage levels of methyl 3,5-diphenylpyridazine-4-carboxylate (0.1 mg/kg, 0.3 mg/kg, 1 mg/kg and 3 mg/kg, ip). RAM behavioral tasks were performed on eight AI rats. All five treatment conditions (vehicle and four dosage levels) were tested on all eight rats.
The RAM apparatus used consisted of eight equidistantly-spaced arms. An elevated maze arm (7 cm width×75 cm length) projected from each facet of an octagonal center platform (30 cm diameter, 51.5 cm height). Clear side walls on the arms were 10 cm high and were angled at […] to form a trough. A food well (4 cm diameter, 2 cm deep) was located at the distal end of each arm. Froot Loops™ (Kellogg Company) were used as rewards. Blocks constructed of Plexiglas™ (30 cm height×12 cm width) could be positioned to prevent entry to any arm. Numerous extra maze cues surrounding the apparatus were also provided.
The AI rats were initially subjected to a pre-training test (Chappell et al. Neuropharmacology 37: 481-487, 1998). […]

T2 sequence (P19969 32-464 limits assumed): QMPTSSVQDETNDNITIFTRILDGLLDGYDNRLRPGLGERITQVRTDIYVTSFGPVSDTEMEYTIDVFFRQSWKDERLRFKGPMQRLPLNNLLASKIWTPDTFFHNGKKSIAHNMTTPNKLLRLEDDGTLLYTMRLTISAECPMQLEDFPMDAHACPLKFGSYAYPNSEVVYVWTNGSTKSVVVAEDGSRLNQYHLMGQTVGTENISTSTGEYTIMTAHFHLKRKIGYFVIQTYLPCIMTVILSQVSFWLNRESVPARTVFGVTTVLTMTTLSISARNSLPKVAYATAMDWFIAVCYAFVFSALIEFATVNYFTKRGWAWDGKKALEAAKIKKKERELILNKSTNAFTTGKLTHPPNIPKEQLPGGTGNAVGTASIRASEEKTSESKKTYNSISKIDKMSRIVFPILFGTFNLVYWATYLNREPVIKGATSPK
T2 sequence (P18508 39-466): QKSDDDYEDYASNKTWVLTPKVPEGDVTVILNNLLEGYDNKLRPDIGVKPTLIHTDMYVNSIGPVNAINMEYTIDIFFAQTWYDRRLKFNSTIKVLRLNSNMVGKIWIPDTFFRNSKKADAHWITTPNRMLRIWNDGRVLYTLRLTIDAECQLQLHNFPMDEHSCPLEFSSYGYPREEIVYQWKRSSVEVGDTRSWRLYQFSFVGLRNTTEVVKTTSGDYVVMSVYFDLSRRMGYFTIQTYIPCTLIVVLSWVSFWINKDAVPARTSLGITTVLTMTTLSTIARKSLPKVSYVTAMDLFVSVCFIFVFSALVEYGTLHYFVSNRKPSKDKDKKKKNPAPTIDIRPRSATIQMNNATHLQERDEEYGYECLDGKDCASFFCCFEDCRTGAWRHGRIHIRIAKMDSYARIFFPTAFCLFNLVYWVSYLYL
T1 sequence (P19969 32-464 limits assumed): as the sequence (P19969 32-464 limits assumed) above
T1 sequence (P18508 39-466): as the sequence (P18508 39-466) above
Sequence of α5-containing GABAA R (P31644 32-462): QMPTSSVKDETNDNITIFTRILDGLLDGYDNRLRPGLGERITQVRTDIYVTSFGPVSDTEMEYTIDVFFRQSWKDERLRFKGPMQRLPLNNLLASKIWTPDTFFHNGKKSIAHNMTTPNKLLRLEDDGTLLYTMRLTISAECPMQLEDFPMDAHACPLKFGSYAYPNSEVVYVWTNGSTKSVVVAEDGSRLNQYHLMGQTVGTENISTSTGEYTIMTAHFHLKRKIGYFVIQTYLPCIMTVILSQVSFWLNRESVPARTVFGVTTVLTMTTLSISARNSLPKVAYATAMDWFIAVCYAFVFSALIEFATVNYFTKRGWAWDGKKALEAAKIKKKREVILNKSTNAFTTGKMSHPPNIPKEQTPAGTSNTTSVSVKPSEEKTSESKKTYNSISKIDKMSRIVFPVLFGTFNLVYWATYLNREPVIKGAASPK
Sequence of α5-containing GABAA R (P28472 26-473 partner): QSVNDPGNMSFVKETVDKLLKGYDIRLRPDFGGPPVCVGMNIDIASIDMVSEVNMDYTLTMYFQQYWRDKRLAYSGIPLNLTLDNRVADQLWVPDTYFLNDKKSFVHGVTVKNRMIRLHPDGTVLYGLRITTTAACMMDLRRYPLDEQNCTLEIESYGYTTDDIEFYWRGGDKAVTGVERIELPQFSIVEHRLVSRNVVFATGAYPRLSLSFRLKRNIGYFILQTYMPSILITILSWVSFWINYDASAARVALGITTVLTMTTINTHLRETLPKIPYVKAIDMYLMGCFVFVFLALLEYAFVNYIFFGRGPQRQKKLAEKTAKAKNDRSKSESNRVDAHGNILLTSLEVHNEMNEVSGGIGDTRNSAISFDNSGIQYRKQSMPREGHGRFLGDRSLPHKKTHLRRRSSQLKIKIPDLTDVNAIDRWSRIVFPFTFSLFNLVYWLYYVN
Sequence of α5-containing GABAA R (P18507 40-475): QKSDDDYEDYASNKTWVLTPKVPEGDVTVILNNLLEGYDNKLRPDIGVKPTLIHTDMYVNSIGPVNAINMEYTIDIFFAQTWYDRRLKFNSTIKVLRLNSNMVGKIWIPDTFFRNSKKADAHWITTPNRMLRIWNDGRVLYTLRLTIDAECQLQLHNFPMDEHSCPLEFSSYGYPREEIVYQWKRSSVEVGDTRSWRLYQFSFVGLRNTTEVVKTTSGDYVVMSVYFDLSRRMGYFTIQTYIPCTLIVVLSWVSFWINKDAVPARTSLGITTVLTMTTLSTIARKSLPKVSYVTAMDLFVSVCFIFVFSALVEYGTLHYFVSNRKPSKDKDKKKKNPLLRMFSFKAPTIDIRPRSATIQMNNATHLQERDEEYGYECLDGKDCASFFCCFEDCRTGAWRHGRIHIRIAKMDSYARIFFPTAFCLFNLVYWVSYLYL

Compound	effect on cerebellum levels of Ro 15-4513 [1]	effect on Ro 15-4513 binding in hippocampus [2]	memory performance relative to vehicle control ([3]; 3 mg/kg, t(7)=4.13, p=0.004, or t(7)=3.08, p=0.018)	memory performance relative to vehicle control ([3]; 10 mg/kg, t(7)=2.82, p=0.026)	α5-containing GABAA receptor occupancy ([2]; 10 mg/kg) [%]	increase in hippocampal exposure ([4]; dose from 0.1 to 1 mg/kg) [fold]	increase in hippocampal exposure ([4]; dose from 1 to 10 mg/kg) [fold]	increase in plasma exposure ([4]; dose from 1 to 10 mg/kg) [fold]	α5 in vitro efficacy (EC20) [5]	effect on Ro 15-4513 binding in hippocampus ([6]; 0.01-10 mg/kg, i.v.)	effect on cerebellum levels of Ro 15-4513 ([6]; 0.01-10 mg/kg, i.v.)	GABAA α5 receptors occupied at exposures behaviorally active in aged-impaired rats ([6]; hippocampus, FIG. 4)	ED50 of receptor occupancy, ratio method ([6]; i.v.) [mg/kg]	GABAA α5 receptor occupancy, dose dependence ([6]; rat, in vivo)	receptor occupancy at 10 mg/kg ([6]; rat, iv, 10 mg/kg) [%]	ED50 ([6]; rat, iv, read-out: ED50 of receptor occupancy, using L-755,608 to define occupancy) [mg/kg]	memory performance relative to vehicle control ([7]; t(7)=4.233, p=0.004)	average no. of errors ± SEM in retention test ([7]; two-hour delay)
CCOC(=O)c1ncn2c1Cn1c(C)nnc1-c1cc(OC)ccc1-2 [Ethyl 3-methoxy-7-methyl-9H-benzo[f]imidazo[1,5-a][1,2,4]tri]	did not affect binding	blocked the binding	–	–	–	–	–	–	–	–	–	–	–	–	–	–	–	–
CCOC(=O)c1ncn2c1Cn1c(C)nnc1-c1cc(OC)ccc1-2 [ethyl 3-methoxy-7-methyl-9H-benzo[f]imidazo[1,5-a][1,2,4]tri]	without affecting	reduced Ro 15-4513 binding in hippocampus	significantly improved memory performance	significantly improved memory performance	> 90	–	–	–	–	–	–	–	–	–	–	–	–	–
COC(=O)c1c(-c2ccccc2)cnnc1-c1ccccc1 [methyl 3,5-diphenylpyridazine-4-carboxylate]	–	–	–	–	–	12	~5	12	+27	blocked the binding; also recorded: dose-dependently reduced	did not affect binding; also recorded: without affecting	about 32%	1.8	dose-dependent increase	> 90	1.1	significantly improved memory performance	1.31±0.40

From patent US11142529B2 (priority 2013, dated 2021)
